Results from publication PMC7609050, “Photosynthesis without β-carotene” (eLife, 2020).

Biological target: T1, PSII core (Nicotiana tabacum, UniProt P06411+P06413+P69556+P69686)
T1 construct: gene psbA; native PSII core complex, sucrose gradient band of alpha-DDM-solubilised thylakoids; some Lhcb contamination
Assay: HPLC and absorption-fit pigment analysis of isolated complex
Type: binding
Settings: normalised to 37 Chls
From the text: HPLC and absorption-fit pigment analysis of isolated complex on PSII core

Asta and its bypass products (complex from Asta plants (no beta-carotene), count includes by-products of astaxanthin synthesis)	β-caro (complex from wild-type plants)	SMILES
4.12 ± 0.01 molecules per complex		CC1=C(/C=C/C(C)=C/C=C/C(C)=C/C=C/C=C(C)/C=C/C=C(C)/C=C/C2=C(C)C(=O)[C@@H](O)CC2(C)C)C(C)(C)C[C@H](O)C1=O [astaxanthin]
	3.93 ± 0.08 molecules per complex	CC1=C(/C=C/C(C)=C/C=C/C(C)=C/C=C/C=C(C)/C=C/C=C(C)/C=C/C2=C(C)CCCC2(C)C)C(C)(C)CCC1 [β-carotene]
